Data on five compounds can be found in PMC7756582, “Prodrugs of γ‐Alkyl‐Modified Nucleoside Triphosphates: Improved Inhibition of HIV Reverse Transcriptase” (Angewandte Chemie (International Ed. in English), 2020).

SMILES strings stand for the structures. Read-outs that look alike come from different tables or passages of the source.

The test system of data set [1] is HIV-2(ROD). The data set can be described thus: Anti-HIV activity assay, HIV-2-infected thymidine-kinase-deficient CEM/TK- cell cultures. The format is cell-based. Particulars: for EC50: mean±SD, n=2-3. The protocol:
γ‐(AB,alkyl)‐d4TTP prodrugs 6 and the γ‐alkyl‐d4TTPs 7 were evaluated for their ability to inhibit the replication of HIV in HIV‐1‐ or HIV‐2‐infected wild‐type CEM/0 as well as mutant thymidine‐kinase‐deficient CEM cell cultures (CEM/TK^−). For comparison, two TriPPPro derivatives 5 were also included in this assay.
Anti-HIV activity assay: Inhibition of HIV-1(IIIB)- and HIV-2(ROD)-induced cytopathicity in wild-type CEM/0 and thymidine kinase-deficient CEM/TK- cell cultures was measured in microtiter 96-well plates containing ~3·105 CEM cells/mL infected with 100 CCID50 of HIV per milliliter and containing appropriate dilutions of the test compounds. After 4−5 days of incubation at 37 °C in a CO2-controlled humidified atmosphere, CEM giant (syncytium) cell formation was examined microscopically. […]
was defined as the compound concentration required to inhibit HIV-induced giant cell formation by 50%. […]
(§1) The result was visualized by fluorescence imaging. […]
as §1

Data set [2] in a line: Enzyme-catalyzed hydrolysis in human CD4+ T-lymphocyte CEM cell extracts. The format is in vitro ADME. The conditions noted are these: for half-life at 0.86 mM: CEM/0 cell extracts (CD4+ T-lymphocytes), human CD4+ T-lymphocyte CEM cell extracts, 37 °C, read-out: CEM/0 cell extracts t 1/2 (converted). The protocol: The stability of prodrugs 6 and the γ‐alkyl‐NTPs 7 was further investigated in human CD4 ^+ T‐lymphocyte CEM cell extracts. […] Thus, an enzymatic cleavage reaction took place. Half‐lives as low as 0.4 h (6 az) to 5.2 h (6 dz) were determined. […] This is in accordance to our previous results for the DiPPro‐[ ^17 , ^18 ] or the TriPPPro‐compounds 5.[ ^22 , ^23 ] In all cases we observed the predominant formation of γ‐alkyl‐d4TTPs 7 and d4TDP 2 d in very low concentration (Figure 2 B) but no NTP formation was detected, in contrast to the studies using the previously described TriPPPro compounds 5.[ ^23 , ^24 ] However, the difference to the compounds bearing long lipophilic acyl groups was not very pronounced (2‐ to 3‐fold). In the case of γ‐(AB‐C4,alkyl‐C18)‐d4TTP 6 cz, γ‐C18‐d4TTP 7 z was detected as the main product. After 8 h incubation, the ratio of γ‐C18‐d4TTP 7 z and d4TDP 2 d was 5:1. This was in sharp contrast to the studies performed with TriPPPro compounds 5.[ ^23 , ^24 ] There, it was almost impossible to detect significant concentrations of d4TTP due to its fast dephosphorylation to form first d4TDP and finally d4TMP 2 m. […] The formation of thymine or d4TTP 2 t from γ‐C18‐d4TTP 7 z was not detected (Supporting Information, Figure SI2).
ProLab 300 from Schott Co.. Thermomixer: Eppendorf Thermomixer 5436 and CellMedia Thermoschüttler basic were used. […]
Enzyme-catalyzed hydrolysis of γ-(AB,alkyl)-d4TTPs 6, γ-alkyl-d4TTPs 7,15 and TriPPPros 5 in CEM cell extracts:
18 µL of the appropriate 50 mM DMSO-d6 stock solution was diluted to 6.0 mM hydrolysis solution by addition of 132.0 µL DMSO-d6.
7-10 different samples including 10 µL water and 10 µL hydrolysis solution were prepared in 2 mL Eppendorf® vials. The reaction was started by addition of 50 µL human CEM cell extract and the mixture was incubated at 37 °C for different time periods. The reactions were stopped by addition of 150 μL MeOH. The solution was kept on ice for 5 min followed by centrifugation for 5 min (13000 rpm).
The supernatants were filtered (Chromafil® RC-20/15 MS, 0.2 μm) and stored in liquid nitrogen. When testing, the samples were defrosted and injection volume with 80 μL was used for HPLC analysis. The calculation of t1/2 was performed analogously to that for the chemical hydrolysis studies.
(§2) Preparation of cell extracts: Human CD4+ T-lymphocyte CEM cells were grown in RPMI-1640-based cell culture medium to a final density of ~3·10^6 cells/ml. Then, cells were centrifuged for 10 min at 1,250 rpm at 4 °C, washed twice with cold PBS, and the pellet was re-suspended at 10^8 cells/ml and sonicated (Hielscher Ultrasound Techn., 100% amplitude, 3·times for 10 sec) to destroy cell integrity. The resulting cell suspension was then centrifuged at 10,000 rpm to remove cell debris, and the supernatant divided in aliquots before being frozen at -80 C and used.

Data set [3] has as its system pig liver esterase (PLE). The data set can be described thus: Enzymatic hydrolysis with pig liver esterase (PLE). The format is in vitro ADME. The conditions noted are these: pH 7.3, 37 °C; for cleavage of the alkyl residue by esterase: PLE in PBS; for half-life at 0.45 mM: pig liver esterase (PLE) in PBS, pig liver esterase in PBS, read-out: t 1/2 with PLE (cleavage of acyloxybenzyl masking unit). The protocol: Next, the enzymatic stability of prodrugs γ‐(AB‐C4,alkyl‐C18)‐d4TTP 6 cz and γ‐(AB‐C15,alkyl‐C4)‐d4TTP 6 ew was examined by incubation with PLE, which is used as a model enzyme for studying the esterase activation of the prodrugs, in PBS, pH 7.3 at 37 °C. […] This proves our initial concept of introducing an enzyme (esterase)‐stable group to the γ‐phosphate unit.
ProLab 300 from Schott Co.. Thermomixer: Eppendorf Thermomixer 5436 and CellMedia Thermoschüttler basic were used.
Fluorescent Imager: ChemiDoc™ MP Imaging System (170-8280) from Bio-Rad Co. was used for primer extension study.
Electrophoresis: Thermo Fisher OwlTM S4S Aluminum-Backed Sequencer System. Power supply: Consort EV2230 Gel […]
Further aliquots were taken for monitoring the kinetic hydrolysis. The exponential decay curves (pseudo-first order) based on absolute integral values were calculated with commercially available software (OriginPro 9.0G) and yielded the half-lives t1/2 of the prodrugs via one determination.
Enzymatic hydrolysis of compounds 6,7 with pig liver esterase (PLE):
10 µL 50 mM DMSO stock solution of compounds 6,7 was diluted to 6.0 mM hydrolysis solution by addition of 31.7 µL DMSO and 41.7 µL ultrapure water. Then 83.3 µl of the 6.0 mM solution was diluted with 125 µL DMSO and 833 µl 50 mM PBS buffer (pH 7.3).
The reaction was started by addition of 62.5 µl of PLE in PBS buffer (3 mg/mL) and the mixture was incubated with 800 rpm at 37 °C in a thermomixer. At different times, aliquots (100 µl) were taken and the reaction was stopped by addition to […] MeOH. The mixture was kept for 5 min on ice followed by centrifugation for 5 min (13000 rpm). The mixture was filtered (Chromafil RC-20/15 MS, […]) and stored in liquid nitrogen. When testing, the samples were defrosted and injection volume with 80 µL was used for HPLC […]
The calculation of t1/2 was performed analogously to that for the chemical hydrolysis studies.
as §2
(1 picture or pasted object on this page, not shown here)

Setting [4] is: Human immunodeficiency virus 2, CEM-TK(-), read-out: EC50 CEM/TK− HIV-2, thymidine-kinase-deficient CEM/TK− cells, HIV-2.
[5] abbreviates: read-out: EC50 CEM/TK− HIV-2, thymidine-kinase-deficient CEM/TK− cells, HIV-2.
The mark [6] stands for this setting: Human immunodeficiency virus 2, thymidine-kinase-deficient CEM/TK− cells, HIV-2, read-out: EC50 CEM/TK− HIV-2.

`CCCCOP(=O)(O)OP(=O)(O)OP(=O)(O)OCC1C=CC(n2cc(C)c(=O)[nH]c2=O)O1` (stereo not shown) [7 w, γ‐C4‐d4TTP]: in data set [1] (HIV-2-infected CEM/TK− cells), the “antiviral activity in CEM/TK− cell cultures (in words)” value (from here on “antiviral activity … (in words)”) is “almost inactive”. The EC50 in data set [1] (setting [4]) was 35 µM; in data set [1] (setting [5]), 36 ± 29 µM. In addition, the half-life at 0.86 mM in data set [2] was above 30 h. For the same compound, the “cleavage of the alkyl residue by esterase” value in data set [3] was “no cleavage of the alkyl residue”.
For the compound `CCCCCCCCCCCCCCCCCCOP(=O)(OCc1ccc(OC(=O)CCCC)cc1)OP(=O)(O)OP(=O)(O)OCC1C=CC(n2cc(C)c(=O)[nH]c2=O)O1` (stereo not shown) [6 cz, γ‐(AB‐C4,alkyl‐C18)‐d4TTP], the EC50 in data set [1] (setting [6]) amounted to 0.17 µM. Besides, the half-life at 0.86 mM in data set [2] was 4.8 h. In addition, the half-life at 0.45 mM in data set [3] is 0.135 h.
In the case of `CCCCCCCCCCCCCCCCCCOP(=O)(O)OP(=O)(O)OP(=O)(O)OCC1C=CC(n2cc(C)c(=O)[nH]c2=O)O1` (stereo not shown) [7 z, γ‐C18‐d4TTP], in data set [1] (HIV-2-infected CEM/TK− cells), the “antiviral activity improved versus TriPPPro intermediates comprising a C17 aliphatic chain” value is on record as 30 fold, the “antiviral activity … (in words)” value is on record as “highly potent” and the “more active than d4T” value was found to be 2700 fold. Besides, the EC50 in data set [1] (setting [4]) is 0.055 µM. In addition, the EC50 in data set [1] (setting [5]) was found to be 0.05 ± 0.027 µM. Moreover, the half-life at 0.86 mM in data set [2] is above 30 h. In data set [3], the “cleavage of the alkyl residue by esterase” value was “no cleavage of the alkyl residue”.
Consider `CCCCCCCCCCCCCCCC(=O)Oc1ccc(COP(=O)(OCCCC)OP(=O)(O)OP(=O)(O)OCC2C=CC(n3cc(C)c(=O)[nH]c3=O)O2)cc1` (stereo not shown) [6 ew, γ‐(AB‐C15,alkyl‐C4)‐d4TTP], for which the “antiviral activity … (in words)” value in data set [1] (HIV-2-infected CEM/TK− cells) is “inactive”. For the same compound, in data set [1] (setting [6]), the EC50 is above 10 µM. Further, the half-life at 0.86 mM in data set [2] is 2.2 h. Also, the half-life at 0.45 mM in data set [3] was determined as 0.425 h.
As to `Cc1cn(C2C=CC(COP(=O)(O)OP(=O)(O)OP(=O)(O)O)O2)c(=O)[nH]c1=O` (stereo not shown) [2 t, d4TTP, reference compound], the “antiviral activity … (in words)” value in data set [1] (HIV-2-infected CEM/TK− cells) was “inactive”. Besides, the EC50 in data set [1] (setting [4]) is above 100 µM. The “stability in cell extracts (in words)” value in data set [2] (CEM cell extracts, incubation up to 30 h) is reported as “rapidly enzymatically dephosphorylated”.
